Reference: US10233426B2, “Method for inducing cardiac differentiation of pluripotent stem cell with low-molecular compounds” (KYOTO UNIVERSITY, priority 2014, dated 2019)

These molecules were tested on monkey ES cell line transfected with an αMHC promoter-driven GFP gene (assay: Chemical screening: GFP fluorometry for cardiac differentiation of monkey ES cells). Settings: test compound 0.3 μM in Early phase (day 0 to day 3); 10 μM KY02111 in late phase; GFP fluorometry day 9.
Assay type: cell-based, cynomolgus monkey
Experimental: Pluripotent stem cells were cultured in culture media to which the test compounds were added in different concentrations (0.3 μM, 1 μM, 3 μM and 10 μM) in early phase and late phase of differentiation of the cells. Cells from the culture were subjected to GFP fluorometry in accordance with the cardiac differentiation protocol shown in FIG. 1a. Besides the test compounds, 10 μM KY02111 was included in the culture media for the late phase differentiation. The intensity of GFP fluorescence determined in the cells from the control culture, which was cultured with no test compound other than KY02111, was assigned to one.
The scheme of chemical screening is illustrated in FIG. 1a. Compounds were screened for the ability of increasing GFP fluorescence compared with the control (KY02111 alone) using a monkey ES cell line transfected with an αMHC promoter-driven GFP gene (Minami et al., Cell Reports 2, 1448-1460, 2012, which is incorporated herein by reference). The ES cell line was derived from a monkey ES cell line (cynomolgus monkey CMK6.4) by transfecting the cells with a vector which expresses green fluorescent protein (GFP) under control by a promoter of α-MHC gene (a marker of cardiac differentiation). The cells were plated at 4.0×10^5 cells per well in 6 well plates (Asahi Glass/5816-006: Ezview culture plates) and cultured for nine days in an IMDM-based medium for cardiac differentiation (200 ml IMDM medium (Sigma 13390), with 50 ml calf serum (GIBCO 10099-141), 2.5 ml MEM non-essential amino acid solution (Sigma M7145), 2.5 ml penicillin-streptomycin ([…]), 2.5 ml 200 mM L-glutamine, 2 ul 2-mercaptoethanol (Sigma M7522), and 255 ul 5N NaOH). Each test compound was added to the medium at different concentrations in the early phase (day 0 to day 3) and the late phase (day 4 to day 7) of cardiac differentiation. Cells obtained from the culture on day 9 were subjected to GFP fluorometry with a Metamorph imaging system. […]

Row | Compound | intensity of GFP fluorescence relative to control culture (KY02111 only, assigned to one)
1 | c1cc(-c2cnn3cc(-c4ccc(OCCN5CCCCC5)cc4)cnc23)ccn1 [Dorsomorphin] | 0.13
2 | CC(C)(O)/C=C/C(=O)[C@](C)(O)[C@H]1[C@H](O)C[C@@]2(C)[C@@H]3CC=C4[C@@H](C=C(O)C(=O)C4(C)C)[C@]3(C)C(=O)C[C@]12C [Cucurbitaonl] | 0.11
3 | CC(C)(C)c1ccc(S(=O)(=O)Nc2ccc(-n3ccnc3)cc2)cc1 [ISCK03] | 0.08
4 | Cc1c[nH]c(/C=C2\C(=O)Nc3ccccc32)c1CCC(=O)O [SU5402] | 0.09
5 | O=c1[nH]c2ccccc2n1C1CCN(Cc2ccc(-c3nc4cc5[nH]cnc5cc4nc3-c3ccccc3)cc2)CC1 [Akt inhibitor 8] | 1.2
6 | COc1cc([C@@H]2c3cc4c(cc3[C@H](O)[C@H]3COC(=O)[C@@H]23)OCO4)cc(OC)c1OC [PPP] | 0.2

Same assay, conditions: test compound 0.3 μM in Late phase (day 4 to day 7) with 10 μM KY02111; GFP fluorometry day 9

Row | Compound | intensity of GFP fluorescence relative to control culture (KY02111 only, assigned to one)
7 | c1cc(-c2cnn3cc(-c4ccc(OCCN5CCCCC5)cc4)cnc23)ccn1 [Dorsomorphin] | 0.96
8 | CC(C)(O)/C=C/C(=O)[C@](C)(O)[C@H]1[C@H](O)C[C@@]2(C)[C@@H]3CC=C4[C@@H](C=C(O)C(=O)C4(C)C)[C@]3(C)C(=O)C[C@]12C [Cucurbitaonl] | 1.62
9 | CC(C)(C)c1ccc(S(=O)(=O)Nc2ccc(-n3ccnc3)cc2)cc1 [ISCK03] | 1.23
10 | Cc1c[nH]c(/C=C2\C(=O)Nc3ccccc32)c1CCC(=O)O [SU5402] | 0.89
11 | O=c1[nH]c2ccccc2n1C1CCN(Cc2ccc(-c3nc4cc5[nH]cnc5cc4nc3-c3ccccc3)cc2)CC1 [Akt inhibitor 8] | 1.11
12 | COc1cc([C@@H]2c3cc4c(cc3[C@H](O)[C@H]3COC(=O)[C@@H]23)OCO4)cc(OC)c1OC [PPP] | 0.39

Same assay, conditions: test compound 1 μM in Early phase (day 0 to day 3); 10 μM KY02111 in late phase; GFP fluorometry day 9

Row | Compound | intensity of GFP fluorescence relative to control culture (KY02111 only, assigned to one)
13 | c1cc(-c2cnn3cc(-c4ccc(OCCN5CCCCC5)cc4)cnc23)ccn1 [Dorsomorphin] | 0.03
14 | CC(C)(O)/C=C/C(=O)[C@](C)(O)[C@H]1[C@H](O)C[C@@]2(C)[C@@H]3CC=C4[C@@H](C=C(O)C(=O)C4(C)C)[C@]3(C)C(=O)C[C@]12C [Cucurbitaonl] | 0
15 | CC(C)(C)c1ccc(S(=O)(=O)Nc2ccc(-n3ccnc3)cc2)cc1 [ISCK03] | 0
16 | Cc1c[nH]c(/C=C2\C(=O)Nc3ccccc32)c1CCC(=O)O [SU5402] | 0
17 | O=c1[nH]c2ccccc2n1C1CCN(Cc2ccc(-c3nc4cc5[nH]cnc5cc4nc3-c3ccccc3)cc2)CC1 [Akt inhibitor 8] | 0.96
18 | COc1cc([C@@H]2c3cc4c(cc3[C@H](O)[C@H]3COC(=O)[C@@H]23)OCO4)cc(OC)c1OC [PPP] | 0

Same assay, conditions: test compound 1 μM in Late phase (day 4 to day 7) with 10 μM KY02111; GFP fluorometry day 9

Row | Compound | intensity of GFP fluorescence relative to control culture (KY02111 only, assigned to one)
19 | c1cc(-c2cnn3cc(-c4ccc(OCCN5CCCCC5)cc4)cnc23)ccn1 [Dorsomorphin] | 1.67
20 | CC(C)(O)/C=C/C(=O)[C@](C)(O)[C@H]1[C@H](O)C[C@@]2(C)[C@@H]3CC=C4[C@@H](C=C(O)C(=O)C4(C)C)[C@]3(C)C(=O)C[C@]12C [Cucurbitaonl] | 0
21 | CC(C)(C)c1ccc(S(=O)(=O)Nc2ccc(-n3ccnc3)cc2)cc1 [ISCK03] | 0.8
22 | Cc1c[nH]c(/C=C2\C(=O)Nc3ccccc32)c1CCC(=O)O [SU5402] | 1
23 | O=c1[nH]c2ccccc2n1C1CCN(Cc2ccc(-c3nc4cc5[nH]cnc5cc4nc3-c3ccccc3)cc2)CC1 [Akt inhibitor 8] | 1.57
24 | COc1cc([C@@H]2c3cc4c(cc3[C@H](O)[C@H]3COC(=O)[C@@H]23)OCO4)cc(OC)c1OC [PPP] | 0.2

Same assay, conditions: test compound 3 μM in Early phase (day 0 to day 3); 10 μM KY02111 in late phase; GFP fluorometry day 9

Row | Compound | intensity of GFP fluorescence relative to control culture (KY02111 only, assigned to one)
25 | c1cc(-c2cnn3cc(-c4ccc(OCCN5CCCCC5)cc4)cnc23)ccn1 [Dorsomorphin] | 0
26 | CC(C)(O)/C=C/C(=O)[C@](C)(O)[C@H]1[C@H](O)C[C@@]2(C)[C@@H]3CC=C4[C@@H](C=C(O)C(=O)C4(C)C)[C@]3(C)C(=O)C[C@]12C [Cucurbitaonl] | 0
27 | CC(C)(C)c1ccc(S(=O)(=O)Nc2ccc(-n3ccnc3)cc2)cc1 [ISCK03] | 0
28 | Cc1c[nH]c(/C=C2\C(=O)Nc3ccccc32)c1CCC(=O)O [SU5402] | 0
29 | O=c1[nH]c2ccccc2n1C1CCN(Cc2ccc(-c3nc4cc5[nH]cnc5cc4nc3-c3ccccc3)cc2)CC1 [Akt inhibitor 8] | 0.11
30 | COc1cc([C@@H]2c3cc4c(cc3[C@H](O)[C@H]3COC(=O)[C@@H]23)OCO4)cc(OC)c1OC [PPP] | 0

Same assay, conditions: test compound 3 μM in Late phase (day 4 to day 7) with 10 μM KY02111; GFP fluorometry day 9

Row | Compound | intensity of GFP fluorescence relative to control culture (KY02111 only, assigned to one)
31 | c1cc(-c2cnn3cc(-c4ccc(OCCN5CCCCC5)cc4)cnc23)ccn1 [Dorsomorphin] | 1.22
32 | CC(C)(O)/C=C/C(=O)[C@](C)(O)[C@H]1[C@H](O)C[C@@]2(C)[C@@H]3CC=C4[C@@H](C=C(O)C(=O)C4(C)C)[C@]3(C)C(=O)C[C@]12C [Cucurbitaonl] | 0
33 | CC(C)(C)c1ccc(S(=O)(=O)Nc2ccc(-n3ccnc3)cc2)cc1 [ISCK03] | 0.79
34 | Cc1c[nH]c(/C=C2\C(=O)Nc3ccccc32)c1CCC(=O)O [SU5402] | 0.46
35 | O=c1[nH]c2ccccc2n1C1CCN(Cc2ccc(-c3nc4cc5[nH]cnc5cc4nc3-c3ccccc3)cc2)CC1 [Akt inhibitor 8] | 1.33
36 | COc1cc([C@@H]2c3cc4c(cc3[C@H](O)[C@H]3COC(=O)[C@@H]23)OCO4)cc(OC)c1OC [PPP] | 0

Same assay, conditions: test compound 10 μM in Early phase (day 0 to day 3); 10 μM KY02111 in late phase; GFP fluorometry day 9

Row | Compound | intensity of GFP fluorescence relative to control culture (KY02111 only, assigned to one)
37 | c1cc(-c2cnn3cc(-c4ccc(OCCN5CCCCC5)cc4)cnc23)ccn1 [Dorsomorphin] | 0
38 | CC(C)(O)/C=C/C(=O)[C@](C)(O)[C@H]1[C@H](O)C[C@@]2(C)[C@@H]3CC=C4[C@@H](C=C(O)C(=O)C4(C)C)[C@]3(C)C(=O)C[C@]12C [Cucurbitaonl] | 0
39 | CC(C)(C)c1ccc(S(=O)(=O)Nc2ccc(-n3ccnc3)cc2)cc1 [ISCK03] | 0
40 | Cc1c[nH]c(/C=C2\C(=O)Nc3ccccc32)c1CCC(=O)O [SU5402] | 0
41 | O=c1[nH]c2ccccc2n1C1CCN(Cc2ccc(-c3nc4cc5[nH]cnc5cc4nc3-c3ccccc3)cc2)CC1 [Akt inhibitor 8] | 0
42 | COc1cc([C@@H]2c3cc4c(cc3[C@H](O)[C@H]3COC(=O)[C@@H]23)OCO4)cc(OC)c1OC [PPP] | 0

Same assay, conditions: test compound 10 μM in Late phase (day 4 to day 7) with 10 μM KY02111; GFP fluorometry day 9

Row | Compound | intensity of GFP fluorescence relative to control culture (KY02111 only, assigned to one)
43 | c1cc(-c2cnn3cc(-c4ccc(OCCN5CCCCC5)cc4)cnc23)ccn1 [Dorsomorphin] | 0.89
44 | CC(C)(O)/C=C/C(=O)[C@](C)(O)[C@H]1[C@H](O)C[C@@]2(C)[C@@H]3CC=C4[C@@H](C=C(O)C(=O)C4(C)C)[C@]3(C)C(=O)C[C@]12C [Cucurbitaonl] | 0
45 | CC(C)(C)c1ccc(S(=O)(=O)Nc2ccc(-n3ccnc3)cc2)cc1 [ISCK03] | 0.88
46 | Cc1c[nH]c(/C=C2\C(=O)Nc3ccccc32)c1CCC(=O)O [SU5402] | 0.06
47 | O=c1[nH]c2ccccc2n1C1CCN(Cc2ccc(-c3nc4cc5[nH]cnc5cc4nc3-c3ccccc3)cc2)CC1 [Akt inhibitor 8] | 1.11
48 | COc1cc([C@@H]2c3cc4c(cc3[C@H](O)[C@H]3COC(=O)[C@@H]23)OCO4)cc(OC)c1OC [PPP] | 0
